Assay results taken from US20060222628A1, “Gallium complexes of 3-hydroxy-4-pyrones to treat infection by intracellular prokaryotes and DNA viruses” (priority 1999, published 2006).

Tests used:
CMV = experiment: Clinical evaluation for prevention of CMV disease in HIV patients: CMV; format: in vivo, human
Description: In this example, prevention of CMV disease rather than its treatment will be studied. Chemo-prevention by antivirals is preferred, rather than with immune stimulating agents such as interferons, because interferons require regular administration by injection. Foscarnet is an antiviral only for injection, but it is studied for comparison with oral antivirals. […] In addition to the methods used in Example 5 for evaluating the HIV disease, some of the methods employed in the following reference are used in the evaluation: Monkemuller et al. (2000), “Esophageal ulcer caused by cytomegalovirus: resolution during combination antiretroviral therapy for acquired immunodeficiency syndrome,” South Med. J. 93(8):8 18-20. Patients are treated once per day with gelatin capsules containing gallium maltolate. The population of patients with CMV (almost universal, seropositive or culture positive patients) and HIV infection are first divided into two subpopulations groups based on CD4+ counts (above 350/mm^3 and below 350/mm^3). The subpopulations are randomly and blindly divided into two groups each randomly subdivided into subgroups for a total of sixteen approximately equal subgroups that receive either 0 (placebo), 250, 500, or 750 mg/day gallium maltolate for about six months. All subgroups receive the identical regimen of non-gallium antiretroviral therapy as described in Example 5 (a HAART regime). The commonly used nucleoside analog for CMV is ganciclovir, with foscavir used in cases where ganciclovir is ineffective, and the combination used to treat refractory CMV retinitis and other conditions. Foscarnet must be infused slowly to avoid adverse reactions. […] Patients are monitored for HIV disease precisely as described in Example 5. Patients are also medically monitored for CMV disease, including testing and examination for medical symptoms of CMV disease, such as CMV retinitis, throughout the study. […]

HIV infection = experiment: Clinical evaluation for treating HIV infection; format: in vivo, human; conditions: 250, 500 or 750 mg/day oral about six months, with AZT, ddI and indinavir
Experimental: Patients with HIV infection are treated once per day with gelatin capsules containing 250 mg gallium maltolate. Patients are divided randomly and blindly into approximately equal groups that receive either 0 (placebo), 250, 500, or 750 mg/day gallium maltolate for about six months, together with 300 mg AZT twice per day, 200 mg ddI twice per day, and 800 mg indinavir every eight hours. Patients are medically monitored for symptoms of HIV infection throughout the study. In addition, blood serum samples are obtained from the patients at days 0, 30, 90, and 180 and are assayed for CD4 T-cell count by routine methods and for HIV-1 RNA (viral load assay) using the Roche […] ultra-assay (Sun et al. (1998), “Ultrasensitive reverse transcription-PCR assay for quantitation of human immunodeficiency virus type 1 RNA in plasma,” J. Clin. Microbiol. 36(10):2964-2969).

HIV = experiment: Clinical evaluation for prevention of EBV or KSV neoplasms in HIV patients: HIV; format: in vivo; conditions: neoplasm prevention study; MacSynergy II
Description: (§1) Both EBV and KSV cause neoplasms, with both causing lymphomas and KSV ([…]) along with HHV-7, possibly in concert with HHV-6 associated with the pathogenesis of Kaposi Sarcoma. Most humans carry all these viruses. A HIV population could be studied without determining whether any of the patients are seropositive or culturable for these pathogens, or preferably a group of HIV patients who are seropositive or culture positive for both EBV and KSV can be identified. Applying the methods of Example 12 with additional guidance from Schneider et al. (2000), supra, yields a protocol for evaluating the contribution of the gallium compounds of the invention in prevention of opportunistic neoplasms caused by the herpes viruses with combination antiviral therapy.
Using essentially the same protocol as Example 12, but with an HIV infected patient population that is seropositive or culture positive for both EBV and KSV and substituting the specific assays such as PCR, serodetection for the EBV and KSV viruses, the role of gallium as a combination agent in preventing the neoplasms caused by members of the herpesvirus family in HIV disease can be evaluated. The subpopulations are divided according to CD4 counts as in Example 12. Each subpopulation's first group is treated in addition to the foscarnet with interferon-alpha. […]

Varicella-Zoster (VZV) = experiment: Clinical evaluation for Varicella-Zoster (VZV) infection and recurrences; format: in vivo, human
Experimental: Gallium maltolate is evaluated clinically for efficacy in treating Varicella-Zoster (VZV) infection in HIV negative individuals who show no signs of immune dysfunction of any type. Patients with VZV infection are treated once per day with gelatin capsules containing gallium maltolate. The population of patients is divided into subpopulation with recurrent VZV (shingles) and acute VZV infections (chickenpox) respectively. These different subpopulations are divided randomly and blindly into two approximately equal groups with four approximately equal subgroups that receive either 0 (placebo), 250, 500, or 750 mg/day gallium maltolate for about six months. The first group of each subpopulation receive the gallium maltolate dose together with 800 mg acyclovir five times per day. The second group of each subpopulation receive the gallium maltolate dose together with 500 mg ganciclovir twice per day. Patients are medically monitored for resolution reoccurrences of latent VZV infection, or medical symptoms of acute VZV infection throughout the study, with the monitoring including in situ hybridization of skin lesions for VZV DNA. In addition for the acute VZV infected group, blood serum samples are obtained from the patients at days 1-5 and are assayed for VZV particles by routine methods and for VZV DNA (viral load assay) using PCR.

EBV and KSV = experiment: Clinical evaluation for prevention of EBV or KSV neoplasms in HIV patients: neoplasia; format: in vivo, human
Description: as §1
Using essentially the same protocol as Example 12, but with an HIV infected patient population that is seropositive or culture positive for both EBV and KSV and substituting the specific assays such as PCR, serodetection for the EBV and KSV viruses, the role of gallium as a combination agent in preventing the neoplasms caused by members of the herpesvirus family in HIV disease can be evaluated. The subpopulations are divided according to CD4 counts as in Example 12. Each subpopulation's first group is treated in addition to the foscarnet with interferon-alpha. Each subpopulation's second group is treated in addition to the ganciclovir with the same doses of foscarnet and interferon-alpha as the first group. The dosages of the foscarnet and are as in Example 12, as are the dosages for the gallium maltolate for each groups four subgroups. Thus within each subpopulation, gallium plus foscarnet plus traditional HAART is compared to gallium plus foscarnet plus traditional HAART plus ganciclovir. An all oral regimen would be preferable but success would be unlikely. The dosage level for the interferon-alpha used is that used for treating Kaposi Sarcoma (20 million IU every day by injection), a dose that may require adjustment for tolerance in some patients. […]

Cc1occc(=O)c1[O-].Cc1occc(=O)c1[O-].Cc1occc(=O)c1[O-].[Ga+3] [gallium maltolate, tris(3-hydroxy-2-methyl-4H-pyran-4-onato)gallium] was tested, and the “Efficacy in preventing CMV disease in combination” value (CMV; HIV patients on HAART, with foscarnet or ganciclovir) was “effective in combination with either foscarnet or ganciclovir”, the “Prevention of CMV disease with only oral agents” value (CMV; gallium plus ganciclovir versus placebo plus ganciclovir) was “adequate and effecting better results than placebo plus ganciclovir” and the “Synergy in preventing CMV disease” value (CMV; with foscarnet or ganciclovir) was “synergistic with both”. The “Efficacy in treating HIV infection” value (HIV infection) was “effective for treating HIV infection”, the “Synergy with the HAART regime on HIV infection” value (HIV) was “synergistic with the HAART regime in their effects upon the HIV infection” and the “Efficacy in treating VZV infection” value (Varicella-Zoster (VZV); HIV negative patients, 250-750 mg/day oral with acyclovir or ganciclovir) was “effective for treating VZV infection, including recurrent sores as well as more serious systemic disease”. For the same compound, the “Efficacy of combination with acyclovir or ganciclovir versus single agents” value (Varicella-Zoster (VZV); VZV) was “more effective than either agent alone”, the “Synergy with nucleoside analogs” value (Varicella-Zoster (VZV); VZV, MacSynergy II) was “synergy of gallium with both nucleoside analogs is also demonstrated” and the “Efficacy in preventing herpesvirus neoplasia in combination” value (EBV and KSV; HIV infected patients on HAART, with foscarnet, interferon-alpha, ganciclovir) was “effective in combination with foscarnet, interferon and ganciclovir”. The “Prevention of opportunistic herpesvirus associated neoplasms” value (EBV and KSV; combined with foscarnet, ganciclovir and interferon, high CD4+ group) was “producing the best results” and the “Synergy in preventing herpesvirus neoplasia” value (EBV and KSV; with foscarnet, interferon and ganciclovir) was “synergistic with all”.
